Assay results taken from ChEMBL document CHEMBL4334553, “Discovery of Hydroxyamidine Based Inhibitors of IDO1 for Cancer Immunotherapy with Reduced Potential for Glucuronidation” (ACS Med Chem Lett, 2020).

Key:
[1] = target: T1, UGT1A9 (Homo sapiens, UniProt O60656); assay: Stability assessed as recombinant UGT1A9 (unknown origin) mediated compound glucuronidation by measuring half-life at 1 uM incubated in water bath by shaking at 37 degree C measured upto 60 mins in presence of UDPGA by LC-MS/MS analysis; format: ADME
T1 sequence (O60656 whole entry): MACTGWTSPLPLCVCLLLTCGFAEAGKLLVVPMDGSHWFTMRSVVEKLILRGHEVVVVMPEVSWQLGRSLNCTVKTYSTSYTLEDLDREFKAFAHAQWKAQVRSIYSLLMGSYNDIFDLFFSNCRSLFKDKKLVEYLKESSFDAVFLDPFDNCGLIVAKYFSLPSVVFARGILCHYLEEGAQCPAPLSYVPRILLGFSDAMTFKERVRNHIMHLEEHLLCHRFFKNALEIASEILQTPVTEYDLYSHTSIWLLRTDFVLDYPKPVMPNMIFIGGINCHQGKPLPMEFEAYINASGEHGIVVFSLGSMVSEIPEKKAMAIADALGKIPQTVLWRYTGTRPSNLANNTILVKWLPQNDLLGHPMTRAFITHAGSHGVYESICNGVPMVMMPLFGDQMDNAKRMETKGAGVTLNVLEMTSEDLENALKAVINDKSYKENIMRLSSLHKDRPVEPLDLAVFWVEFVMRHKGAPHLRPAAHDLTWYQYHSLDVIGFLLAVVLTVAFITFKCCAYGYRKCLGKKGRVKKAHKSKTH

[2] = target: T2, Indoleamine 2,3-dioxygenase 1 (Homo sapiens, UniProt P14902); assay: Inhibition of human N-terminal GST-tagged IDO1 expressed in Escherichia coli Rosetta(DE3) pLysS using L-tryptophan as substrate measured after 1 hr by fluorescence assay
[3] = target: T2, Indoleamine 2,3-dioxygenase 1; assay: Inhibition of IDO1 in interferon-gamma-induced human SKOV3 cells assessed as N-formylkynurenine formation using L-tryptophan as substrate measured after 24 hrs by fluorescence assay
[4] = Half life in mouse liver microsomes; format: ADME, Microsome
[5] = Half life in human liver microsomes; format: ADME, Microsome
[6] = AUC (0 to 24 hrs) in mouse at 10 mg/kg, po by capillary micro-sampling analysis; format: ADME, organism-based; design: dose 10 mg/kg, time < 24 hr, route oral; details: in vivo
[7] = target: Cytochrome P450 2C9 (Homo sapiens, UniProt P11712); assay: Inhibition of CYP2C9 (unknown origin); format: ADME
[8] = Cmax in mouse at 10 mg/kg, po by capillary micro-sampling analysis; format: ADME, organism-based; design: dose 10 mg/kg, route oral; details: in vivo
[9] = target: Cytochrome P450 3A4 (Homo sapiens, UniProt P08684); assay: Inhibition of CYP3A4 (unknown origin); format: ADME
[10] = target: Tryptophan 2,3-dioxygenase (Homo sapiens, UniProt P48775); assay: Inhibition of TDO in human HEK cells; format: cell-based
[11] = Half life in mouse at 10 mg/kg, po by capillary micro-sampling analysis; format: ADME, organism-based; details: in vivo
[12] = target: Cytochrome P450 2C19 (Homo sapiens, UniProt P33261); assay: Inhibition of CYP2C19 (unknown origin); format: ADME
[13] = target: T2, Indoleamine 2,3-dioxygenase 1; assay: Inhibition IDO1 in LPS/IFN-gamma stimulated human whole blood assessed as reduction in tryptophan/kynurenine level preincubated for 15 mins followed by LPS/IFN-gamma stimulation measured after 20 hrs by LC-MS/MS analysis; format: tissue-based
[14] = target: Cytochrome P450 2D6 (Homo sapiens, UniProt P10635); assay: Inhibition of CYP2D6 (unknown origin); format: ADME
Sequence of Cytochrome P450 2D6 (P10635 whole entry): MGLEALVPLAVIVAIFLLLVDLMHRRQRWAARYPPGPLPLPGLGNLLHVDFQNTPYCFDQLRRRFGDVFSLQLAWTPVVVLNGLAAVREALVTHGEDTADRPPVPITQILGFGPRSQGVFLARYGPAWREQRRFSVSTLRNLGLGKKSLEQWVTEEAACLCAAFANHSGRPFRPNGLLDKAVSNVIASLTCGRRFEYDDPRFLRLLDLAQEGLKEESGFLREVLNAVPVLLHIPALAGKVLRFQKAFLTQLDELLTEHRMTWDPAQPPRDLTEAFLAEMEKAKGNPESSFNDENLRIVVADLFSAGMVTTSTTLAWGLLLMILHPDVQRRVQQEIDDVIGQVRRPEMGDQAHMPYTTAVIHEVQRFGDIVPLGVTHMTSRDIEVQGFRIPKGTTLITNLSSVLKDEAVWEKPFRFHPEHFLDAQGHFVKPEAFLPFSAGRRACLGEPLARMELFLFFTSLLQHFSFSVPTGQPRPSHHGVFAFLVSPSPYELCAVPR

T2 sequence (P14902 whole entry): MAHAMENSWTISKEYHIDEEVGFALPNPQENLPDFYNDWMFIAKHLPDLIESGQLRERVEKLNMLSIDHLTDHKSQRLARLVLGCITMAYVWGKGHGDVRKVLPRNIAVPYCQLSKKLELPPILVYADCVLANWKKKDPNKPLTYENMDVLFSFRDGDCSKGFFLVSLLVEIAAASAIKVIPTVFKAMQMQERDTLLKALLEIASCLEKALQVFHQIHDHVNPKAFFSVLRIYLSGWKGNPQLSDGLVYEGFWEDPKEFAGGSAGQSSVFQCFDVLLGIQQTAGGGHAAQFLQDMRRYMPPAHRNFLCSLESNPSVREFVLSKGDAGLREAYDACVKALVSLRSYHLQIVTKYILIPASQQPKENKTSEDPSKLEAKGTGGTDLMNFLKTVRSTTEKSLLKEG
Sequence of Tryptophan 2,3-dioxygenase (P48775 whole entry): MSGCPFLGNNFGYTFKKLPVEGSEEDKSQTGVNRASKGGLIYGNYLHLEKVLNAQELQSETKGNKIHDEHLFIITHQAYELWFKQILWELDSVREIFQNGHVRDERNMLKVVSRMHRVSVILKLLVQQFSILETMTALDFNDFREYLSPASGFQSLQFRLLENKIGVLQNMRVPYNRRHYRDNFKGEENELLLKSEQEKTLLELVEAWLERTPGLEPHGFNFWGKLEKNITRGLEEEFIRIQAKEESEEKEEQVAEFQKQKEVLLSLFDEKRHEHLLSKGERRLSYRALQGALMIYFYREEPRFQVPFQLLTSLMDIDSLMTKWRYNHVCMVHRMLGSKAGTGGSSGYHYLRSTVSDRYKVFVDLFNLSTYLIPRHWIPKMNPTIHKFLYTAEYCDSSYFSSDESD
Sequence of Cytochrome P450 2C19 (P33261 whole entry): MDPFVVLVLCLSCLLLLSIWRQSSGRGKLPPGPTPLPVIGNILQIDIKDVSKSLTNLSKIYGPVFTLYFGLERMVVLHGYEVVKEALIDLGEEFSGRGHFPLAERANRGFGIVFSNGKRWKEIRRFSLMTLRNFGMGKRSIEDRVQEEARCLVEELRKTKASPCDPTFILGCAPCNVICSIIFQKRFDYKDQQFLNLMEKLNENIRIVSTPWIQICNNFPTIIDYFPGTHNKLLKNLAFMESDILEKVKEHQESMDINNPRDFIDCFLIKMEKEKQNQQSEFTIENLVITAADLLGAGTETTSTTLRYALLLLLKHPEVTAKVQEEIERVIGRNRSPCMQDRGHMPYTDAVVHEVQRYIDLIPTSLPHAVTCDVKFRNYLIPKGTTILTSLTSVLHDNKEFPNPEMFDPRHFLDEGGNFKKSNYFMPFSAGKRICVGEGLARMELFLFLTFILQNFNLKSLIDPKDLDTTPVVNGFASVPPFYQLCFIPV
Sequence of Cytochrome P450 3A4 (P08684 whole entry): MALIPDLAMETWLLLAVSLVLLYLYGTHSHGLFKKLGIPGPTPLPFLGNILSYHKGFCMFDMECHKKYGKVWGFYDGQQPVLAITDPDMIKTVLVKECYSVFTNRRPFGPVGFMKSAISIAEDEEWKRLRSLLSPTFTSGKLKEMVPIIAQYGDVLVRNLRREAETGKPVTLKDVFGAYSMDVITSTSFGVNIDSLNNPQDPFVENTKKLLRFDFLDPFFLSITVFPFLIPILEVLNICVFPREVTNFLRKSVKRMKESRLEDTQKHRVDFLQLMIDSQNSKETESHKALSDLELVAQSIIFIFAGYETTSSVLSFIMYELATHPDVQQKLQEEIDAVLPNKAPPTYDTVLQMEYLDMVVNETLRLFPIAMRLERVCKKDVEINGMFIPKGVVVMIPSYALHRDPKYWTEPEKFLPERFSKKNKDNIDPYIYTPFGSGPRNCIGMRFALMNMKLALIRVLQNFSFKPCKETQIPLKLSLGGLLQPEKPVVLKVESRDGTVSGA
Sequence of Cytochrome P450 2C9 (P11712 whole entry): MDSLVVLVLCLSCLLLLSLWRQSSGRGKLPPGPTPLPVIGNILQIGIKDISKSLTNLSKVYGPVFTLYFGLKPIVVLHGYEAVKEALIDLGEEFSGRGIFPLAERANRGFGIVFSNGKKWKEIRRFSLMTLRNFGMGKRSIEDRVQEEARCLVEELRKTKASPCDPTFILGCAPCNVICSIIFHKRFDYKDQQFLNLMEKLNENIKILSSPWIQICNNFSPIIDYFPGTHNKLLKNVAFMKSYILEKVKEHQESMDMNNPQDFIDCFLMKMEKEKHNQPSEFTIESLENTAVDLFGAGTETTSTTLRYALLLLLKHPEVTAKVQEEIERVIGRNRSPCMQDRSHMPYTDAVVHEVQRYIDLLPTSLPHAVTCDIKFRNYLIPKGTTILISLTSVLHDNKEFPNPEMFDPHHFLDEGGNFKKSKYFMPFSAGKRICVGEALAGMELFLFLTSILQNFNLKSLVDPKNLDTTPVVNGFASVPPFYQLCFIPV

Structure (SMILES)	half-life at 1 µM [1] [h]	IC50 [2] [nM]	IC50 [3] [nM]	half-life [4] [h]	half-life [5] [h]	AUC(0-t) at 24 h [6] [µM·h]	IC50 [7] [nM]	Cmax [8] [µM]	IC50 [9] [nM]	IC50 [10] [nM]	half-life [11] [h]	IC50 [12] [nM]	IC50 [13] [nM]	IC50 [14] [nM]
NS(=O)(=O)NCCSc1nonc1/C(=N/O)Nc1ccc(F)c(Br)c1	0.183	130	2.8											
NS(=O)(=O)CC(=O)NCCSc1nonc1/C(=N/O)Nc1ccc(F)c(C(F)F)c1	> 3	73	13	1.07	2.77									
C[C@H](CSc1nonc1/C(=N/O)Nc1ccc(F)c(Br)c1)NC(=O)CS(N)(=O)=O	1.33	110	12	0.537	0.77									
NS(=O)(=O)NCC(=O)NCCSc1nonc1/C(=N/O)Nc1ccc(F)c(C(F)F)c1	> 3	93	21	2.75	> 3	30	> 10000	3.3	> 10000	> 10000	3.6	> 10000	320	> 10000
N#Cc1cc(N/C(=N\O)c2nonc2SCCNC(=O)CS(N)(=O)=O)ccc1F	> 3	150	39	2.38	> 3									
N#CCC(=O)NCCSc1nonc1/C(=N/O)Nc1ccc(F)c(C(F)F)c1	1.73	180	6.5	0.278	2.77									
C[C@@H](CSc1nonc1/C(=N/O)Nc1ccc(F)c(Br)c1)NC(=O)CS(N)(=O)=O	> 3	93	19	0.398	1.57									
O=C(NCCSc1nonc1/C(=N/O)Nc1ccc(F)c(C(F)F)c1)C1CS(=O)(=O)C1	> 3	70	13	0.245	1.28									
NS(=O)(=O)CC(=O)NCCSc1nonc1/C(=N/O)Nc1ccc(F)c(C(F)(F)F)c1	1.45	84	13	0.923	1.88									
CS(=O)(=O)CC(=O)NCCSc1nonc1/C(=N/O)Nc1ccc(F)c(C(F)F)c1	1.59	100	14	0.765	1.27									
CC(C)(O)CC(=O)NCCSc1nonc1/C(=N/O)Nc1ccc(F)c(C(F)F)c1	> 3	140	8.4	0.175	0.937									
NS(=O)(=O)CC(=O)NCCSc1nonc1/C(=N/O)Nc1ccc(F)c(Br)c1	0.758	71	12	1.12	2.37									
CC1(C(=O)NCCSc2nonc2/C(=N/O)Nc2ccc(F)c(C(F)F)c2)CCN1 (configuration not stated)	> 3	360	16	0.268	1.97									
